We go through one compound from ChEMBL document CHEMBL3045251, “Ethephon elicits protection against Erysiphe necator in grapevine” (2008).

For experiment [1], the system named is Vitis vinifera. The experiment is described as follows: Increase in […] protease inhibitor gene expression in Vitis vinifera cv. Cabernet Sauvignon foliar cuttings at 0.5 g/L measured after 12 to 72 hr post dose by RTq-PCR method relative to untreated control. It is filed as functional.
Experiment [2] deals with Vitis vinifera. The experiment is described as follows: Increase in phenylalanine ammonia lyase gene expression in Vitis vinifera cv. Cabernet Sauvignon foliar cuttings at 0.5 g/L measured after 6 hr post dose by RTq-PCR method relative to untreated control. In kind it is functional.
The test system of experiment [3] is Vitis vinifera. Description: Induction of delta-viniferin accumulation in Vitis vinifera cv. Cabernet Sauvignon foliar cuttings assessed per dry weight of plant at 0.5 g/L measured after 24 hr post dose by fluorimetry. It is filed as functional.
In experiment [4] the test system is Vitis vinifera. The experiment is described as follows: Induction of delta-viniferin accumulation in Vitis vinifera cv. Cabernet Sauvignon foliar cuttings assessed per dry weight of plant at 0.5 g/L measured after 72 hr post dose by fluorimetry. It is filed as functional.
Experiment [5] has as its system Vitis vinifera. The experiment is described as follows: Induction of trans-stilbenes in Vitis vinifera cv. Cabernet Sauvignon foliar cuttings at 0.5 g/L measured after 20 to 80 hr post dose by fluorimetry. It is filed as functional, organism-based.
Experiment [6] concerns Vitis vinifera. The experiment is described as follows: Induction of pterostilbene accumulation in Vitis vinifera cv. Cabernet Sauvignon foliar cuttings assessed per dry weight of plant at 0.5 g/L measured after 24 to 72 hr post dose by fluorimetry. It is filed as functional.
Experiment [7] has as its system Vitis vinifera. The experiment is described as follows: Induction of epsilon-viniferin accumulation in Vitis vinifera cv. Cabernet Sauvignon foliar cuttings assessed per dry weight of plant at 0.5 g/L measured after 24 hr post dose by fluorimetry. It is filed as functional.
The subject of experiment [8] is Vitis vinifera. The experiment is described as follows: Increase in […] class IV chitinase gene expression in Vitis vinifera cv. Cabernet Sauvignon foliar cuttings at 0.5 g/L measured after 6 hr post dose by RTq-PCR method relative to untreated control. In kind it is functional.
In experiment [9] the test system is Vitis vinifera. Description: Induction of trans-resveratrol accumulation in Vitis vinifera cv. Cabernet Sauvignon foliar cuttings assessed per dry weight of plant at 0.5 g/L measured after 24 to 72 hr post dose by fluorimetry. In kind it is functional.
The test system of experiment [10] is Vitis vinifera. Description: Increase in beta-1,3- glucanase gene expression in Vitis vinifera cv. Cabernet Sauvignon foliar cuttings at 0.5 g/L measured after 12 to 24 hr post dose by RTq-PCR method relative to untreated control. In kind it is functional.
The test system of experiment [11] is Erysiphe necator. Description: Fungicidal activity against Erysiphe necator infected 72 hr compound pre-treated grapevine foliar cuttings assessed as reduction in powdery mildew infection measured 14 days post fungal inoculation. On the set-up: scale not given: the % may be the effect or the level left. It is filed as functional.
Experiment [12] deals with Vitis vinifera. The experiment is described as follows: Increase in phenylalanine stilbene synthase gene expression in Vitis vinifera cv. Cabernet Sauvignon foliar cuttings at 0.5 g/L measured after 6 hr post dose by RTq-PCR method relative to untreated control. In kind it is functional.
Experiment [13] relates to Vitis vinifera. Description: Induction of trans-piceid accumulation in Vitis vinifera cv. Cabernet Sauvignon foliar cuttings assessed per dry weight of plant at 0.5 g/L measured after 72 hr post dose by fluorimetry. It is filed as functional.
Experiment [14] relates to Vitis vinifera. Description: Increase in polygalacturonase-inhibiting protein gene expression in Vitis vinifera cv. Cabernet Sauvignon foliar cuttings at 0.5 g/L measured after 12 to 24 hr post dose by RTq-PCR method relative to untreated control. In kind it is functional.
Experiment [15] relates to Erysiphe necator. The experiment is described as follows: Fungicidal activity against Erysiphe necator infected 72 hr compound pre-treated grapevine leaf disks assessed as reduction in fungal colonization measured 14 days post fungal inoculation. It is filed as functional. Details: scale not given: the % may be the effect or the level left.

Calls of active or inactive are those of the source. The rule behind the calls is not given here.

Turning to `O=P(O)(O)CCCl` [ETHEPHON], the “fold change (FC)” value in the experiment on Vitis vinifera [1] turned out to be 9; with Vitis vinifera [2], 10; with Vitis vinifera [8] it was 11; with Vitis vinifera [10], 33; in the experiment on Vitis vinifera [12], 67; with Vitis vinifera [14], 22. Besides, the Activity with Vitis vinifera [3] is reported as 12 nmol/g; in the experiment with Vitis vinifera [4], 6 nmol/g; with Vitis vinifera [6], 10 nmol/g; in the experiment with Vitis vinifera [7] it was 58 nmol/g; with Vitis vinifera [9], 133 nmol/g; in the experiment with Erysiphe necator [11], 70%. Besides, the Activity with Vitis vinifera [13] worked out at 312 nmol/g; with Erysiphe necator [15] it was 64%. Besides, the outcome in the experiment on Vitis vinifera [5] was Active.
